Data: ChEMBL document CHEMBL1201862, “PubChem BioAssay data set” (2004)
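Following 48 hours of exposure in 96-well plates, responses at five concentrations were used to interpolate endpoints linearly. Here, GI50 denotes the concentration required for 50% inhibition of growth.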 Calls of active or inactive are those of the source. No stated cut-off is given here; in the data, active = GI50 up to about 1.1 µM and inactive = higher.

How the values were obtained:
Assay in all cases: NCI-60 cell line screen, 48 h
786-0 = system: 786-0
A498 = system: A498
A549 = system: A549
ACHN = system: ACHN
CAKI-1 = system: CAKI-1
CCRF-CEM = system: CCRF-CEM
COLO 205 = system: COLO 205
DMS-114 = system: DMS-114
DMS-273 = system: DMS-273
EKVX = system: EKVX
HCT-15 = system: HCT-15
HL-60 = system: HL-60
HOP-18 = system: HOP-18
HOP-62 = system: HOP-62
HOP-92 = system: HOP-92
HT-29 = system: HT-29
IGROV-1 = system: IGROV-1
K562 = system: K562
KM-20L2 = system: KM-20L2
KM12 = system: KM12
LOX IMVI = system: LOX IMVI
LXFL 529 = system: LXFL 529
M14 = system: M14
M19-MEL = system: M19-MEL
MOLT-4 = system: MOLT-4
Malme-3M = system: Malme-3M
NCI-H226 = system: NCI-H226
NCI-H23 = system: NCI-H23
NCI-H460 = system: NCI-H460
NCI-H522 = system: NCI-H522
OVCAR-3 = system: OVCAR-3
OVCAR-4 = system: OVCAR-4
OVCAR-5 = system: OVCAR-5
OVCAR-8 = system: OVCAR-8
RPMI-8226 = system: RPMI-8226
RXF 393 = system: RXF 393
RXF 631 = system: RXF 631
SF-268 = system: SF-268
SF-295 = system: SF-295
SF-539 = system: SF-539
SK-MEL-28 = system: SK-MEL-28
SK-MEL-2 = system: SK-MEL-2
SK-MEL-5 = system: SK-MEL-5
SK-OV-3 = system: SK-OV-3
SN12C = system: SN12C
SNB-19 = system: SNB-19
SNB-75 = system: SNB-75
SW-620 = system: SW-620
TK-10 = system: TK-10
U-251 = system: U-251
UACC-257 = system: UACC-257
UACC-62 = system: UACC-62
UO-31 = system: UO-31
XF498 = system: XF498
DLD-1 = system: DLD-1
HCC 2998 = system: HCC 2998
SNB-78 = system: SNB-78
SR = system: SR

With `C=CCN(N=O)C(=O)NCCCC(NC(C)=O)C(=O)NCc1ccccc1` (stereo not given) the GI50 (786-0) was > 100 µM (inactive), the GI50 (A498) was > 100 µM (inactive) and the GI50 (A549) was > 100 µM (inactive). For the same molecule, the GI50 (ACHN) was > 100 µM (inactive), the GI50 (CAKI-1) was > 100 µM (inactive) and the GI50 (CCRF-CEM) was > 100 µM (inactive). For the same molecule, the GI50 (COLO 205) was > 100 µM (inactive), the GI50 (DMS-114) was > 100 µM (inactive) and the GI50 (DMS-273) was > 100 µM (inactive). The GI50 (EKVX) was > 100 µM (inactive), the GI50 (HCT-15) was over 100 µM and the GI50 (HL-60) was > 100 µM (inactive). For the same molecule, the GI50 (HOP-18) was 10.9 µM (inactive), the GI50 (HOP-62) was > 100 µM (inactive) and the GI50 (HOP-92) was 61.5 µM (inactive). For the same molecule, the GI50 (HT-29) was > 100 µM (inactive), the GI50 (IGROV-1) was > 100 µM (inactive) and the GI50 (K562) was > 100 µM (inactive). For the same molecule, the GI50 (KM-20L2) was > 100 µM (inactive), the GI50 (KM12) was > 100 µM (inactive) and the GI50 (LOX IMVI) was > 100 µM (inactive). For the same molecule, the GI50 (LXFL 529) was > 100 µM (inactive), the GI50 (M14) was > 100 µM (inactive) and the GI50 (M19-MEL) was > 100 µM (inactive). The GI50 (MOLT-4) was > 100 µM (inactive), the GI50 (Malme-3M) was > 100 µM (inactive) and the GI50 (NCI-H226) was > 100 µM (inactive). For the same molecule, the GI50 (NCI-H23) was > 100 µM (inactive), the GI50 (NCI-H460) was > 100 µM (inactive) and the GI50 (NCI-H522) was > 100 µM (inactive). The GI50 (OVCAR-3) was > 100 µM (inactive), the GI50 (OVCAR-4) was > 100 µM (inactive) and the GI50 (OVCAR-5) was > 100 µM (inactive). The GI50 (OVCAR-8) was > 100 µM (inactive), the GI50 (RPMI-8226) was > 100 µM (inactive) and the GI50 (RXF 393) was > 100 µM (inactive). For the same molecule, the GI50 (RXF 631) was > 100 µM (inactive), the GI50 (SF-268) was > 100 µM (inactive) and the GI50 (SF-295) was > 100 µM (inactive). The GI50 (SF-539) was 98.2 µM (inactive), the GI50 (SK-MEL-28) was > 100 µM (inactive) and the GI50 (SK-MEL-2) was > 100 µM (inactive). The GI50 (SK-MEL-5) was > 100 µM (inactive), the GI50 (SK-OV-3) was > 100 µM (inactive) and the GI50 (SN12C) was > 100 µM (inactive). The GI50 (SNB-19) was > 100 µM (inactive), the GI50 (SNB-75) was > 100 µM (inactive) and the GI50 (SW-620) was > 100 µM (inactive). The GI50 (TK-10) was > 100 µM (inactive), the GI50 (U-251) was > 100 µM (inactive) and the GI50 (UACC-257) was > 100 µM (inactive). The GI50 (UACC-62) was > 100 µM (inactive), the GI50 (UO-31) was > 100 µM (inactive) and the GI50 (XF498) was > 100 µM (inactive).

In the case of `O=C1CNC(=O)c2[nH]cnc2N1`, the GI50 (786-0) is reported as > 100 µM (inactive), the GI50 (A498) is reported as > 100 µM (inactive) and the GI50 (A549) is reported as > 100 µM (inactive). The GI50 (ACHN) was > 100 µM (inactive), the GI50 (CCRF-CEM) was > 100 µM (inactive) and the GI50 (COLO 205) was > 100 µM (inactive). The GI50 (DLD-1) was > 100 µM (inactive), the GI50 (DMS-114) was > 100 µM (inactive) and the GI50 (DMS-273) was > 100 µM (inactive). The GI50 (EKVX) was > 100 µM (inactive), the GI50 (HCC 2998) was > 100 µM (inactive) and the GI50 (HCT-15) was over 100 µM. The GI50 (HL-60) was > 100 µM (inactive), the GI50 (HOP-18) was > 100 µM (inactive) and the GI50 (HT-29) was > 100 µM (inactive). For the same molecule, the GI50 (IGROV-1) was > 100 µM (inactive), the GI50 (K562) was 82.6 µM (inactive) and the GI50 (KM12) was > 100 µM (inactive). The GI50 (LOX IMVI) was > 100 µM (inactive), the GI50 (LXFL 529) was > 100 µM (inactive) and the GI50 (M14) was > 100 µM (inactive). The GI50 (M19-MEL) was > 100 µM (inactive), the GI50 (MOLT-4) was > 100 µM (inactive) and the GI50 (Malme-3M) was > 100 µM (inactive). The GI50 (NCI-H226) was > 100 µM (inactive), the GI50 (NCI-H23) was > 100 µM (inactive) and the GI50 (NCI-H460) was > 100 µM (inactive). The GI50 (OVCAR-3) was > 100 µM (inactive), the GI50 (OVCAR-4) was > 100 µM (inactive) and the GI50 (OVCAR-5) was > 100 µM (inactive). For the same molecule, the GI50 (OVCAR-8) was > 100 µM (inactive), the GI50 (RPMI-8226) was > 100 µM (inactive) and the GI50 (RXF 393) was > 100 µM (inactive). For the same molecule, the GI50 (RXF 631) was 39.9 µM (inactive), the GI50 (SF-268) was > 100 µM (inactive) and the GI50 (SF-295) was > 100 µM (inactive). The GI50 (SF-539) was > 100 µM (inactive), the GI50 (SK-MEL-28) was > 100 µM (inactive) and the GI50 (SK-MEL-5) was > 100 µM (inactive). The GI50 (SK-OV-3) was > 100 µM (inactive), the GI50 (SN12C) was > 100 µM (inactive) and the GI50 (SNB-19) was > 100 µM (inactive). The GI50 (SNB-75) was > 100 µM (inactive), the GI50 (SNB-78) was > 100 µM (inactive) and the GI50 (SR) was > 100 µM (inactive). For the same molecule, the GI50 (SW-620) was > 100 µM (inactive), the GI50 (TK-10) was > 100 µM (inactive) and the GI50 (U-251) was > 100 µM (inactive). The GI50 (UACC-62) was > 100 µM (inactive), the GI50 (UO-31) was > 100 µM (inactive) and the GI50 (XF498) was 49.3 µM (inactive).
